{
  "source": "ChEMBL document CHEMBL2073761",
  "about": "“Celastraceae sesquiterpenes as a new class of modulators that bind specifically to human P-glycoprotein and reverse cellular multidrug resistance” (Cancer Res, 2004)",
  "target": "ATP-dependent translocase ABCB1 (Homo sapiens, UniProt P08183)",
  "sequence (P08183 whole entry)": "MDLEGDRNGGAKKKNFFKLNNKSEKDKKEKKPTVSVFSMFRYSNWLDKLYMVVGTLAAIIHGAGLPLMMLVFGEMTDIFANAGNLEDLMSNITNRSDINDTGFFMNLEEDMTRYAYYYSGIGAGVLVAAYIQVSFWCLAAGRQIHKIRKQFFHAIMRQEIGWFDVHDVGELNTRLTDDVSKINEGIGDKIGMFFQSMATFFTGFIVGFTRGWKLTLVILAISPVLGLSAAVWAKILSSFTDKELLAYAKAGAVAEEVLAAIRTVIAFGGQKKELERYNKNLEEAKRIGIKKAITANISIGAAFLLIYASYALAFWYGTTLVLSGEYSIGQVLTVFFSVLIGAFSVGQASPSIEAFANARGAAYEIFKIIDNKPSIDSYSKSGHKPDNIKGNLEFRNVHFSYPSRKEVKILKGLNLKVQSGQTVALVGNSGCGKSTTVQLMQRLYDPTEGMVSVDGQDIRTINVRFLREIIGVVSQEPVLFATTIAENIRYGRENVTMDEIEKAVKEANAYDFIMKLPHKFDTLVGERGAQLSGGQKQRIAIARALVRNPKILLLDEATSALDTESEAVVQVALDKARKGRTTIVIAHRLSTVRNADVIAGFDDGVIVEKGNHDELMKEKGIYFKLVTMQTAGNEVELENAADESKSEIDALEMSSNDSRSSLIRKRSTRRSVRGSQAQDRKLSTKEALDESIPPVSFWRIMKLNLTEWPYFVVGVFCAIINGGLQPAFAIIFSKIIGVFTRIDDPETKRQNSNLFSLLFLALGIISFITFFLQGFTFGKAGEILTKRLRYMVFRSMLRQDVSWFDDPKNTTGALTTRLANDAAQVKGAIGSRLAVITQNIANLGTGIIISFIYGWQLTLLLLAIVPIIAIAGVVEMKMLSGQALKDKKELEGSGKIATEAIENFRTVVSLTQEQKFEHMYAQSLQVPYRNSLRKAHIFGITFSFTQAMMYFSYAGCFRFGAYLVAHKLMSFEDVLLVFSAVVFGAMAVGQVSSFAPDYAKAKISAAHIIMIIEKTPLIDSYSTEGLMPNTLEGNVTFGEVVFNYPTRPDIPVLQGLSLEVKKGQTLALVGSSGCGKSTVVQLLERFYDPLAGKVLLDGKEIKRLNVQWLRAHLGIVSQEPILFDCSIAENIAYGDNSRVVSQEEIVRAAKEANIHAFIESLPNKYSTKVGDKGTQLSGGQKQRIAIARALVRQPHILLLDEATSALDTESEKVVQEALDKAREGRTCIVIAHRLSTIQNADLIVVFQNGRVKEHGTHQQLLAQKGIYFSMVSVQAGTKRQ",
  "assay": "TP_TRANSPORTER: efflux of Tetramethylrosamine in membrane vesicles from reconstituted PMPC proteoliposomes containing P-glycoprotein",
  "type": "functional, cell membranes, Membrane vesicle from reconstituted proteoliposome",
  "data": [
    {"smiles": "CN(C)c1ccc2c(-c3ccc(CCl)cc3)c3ccc(=[N+](C)C)cc-3oc2c1.[Br-]", "note": "[TETRAMETHYLROSAMINE]", "values": [
      {"measurement": "Activity", "value": "inhibitor [+]"}
    ]}
  ]
}
